We go through 2 compounds from PMC5838563, “Compounds producing an effective combinatorial regimen for disruption of HIV‐1 latency” (EMBO Molecular Medicine, 2017).

One assay relates to CD69 expression on PBMCs. Nature of the assay: CD69 expression by flow cytometry on PBMCs from healthy donors. Format: cell-based, human. An excerpt:
As discussed earlier, an ideal combination of latency‐reversing compounds would reverse HIV‐1 latency in a broad spectrum of infected cells, without causing global T‐cell activation. Accordingly, we examined the effects of PH02 and PEP005 on T‐cell activation and toxicity on primary cells (PBMCs) isolated from healthy donors. […] Consequently, we examined the effect of lower concentrations of PEP005, alone and in combination with PH02 on these primary cells. […] Based on these observations, we expected that 1 nM PEP005 in combination with PH02 should produce negligible toxicity, and have minimal effects on T‐cell activation, while being capable of causing significant reversal of HIV latency (Fig 4F, Appendix Fig S2B).
Figure 9 Effect of PH02 in combination with PEP005 on T‐cell activation Expression of CD69 on PBMCs from three healthy donors (A, B, C; n = 3) was measured by flow cytometry following 24‐h treatment with 3 μM of PH02 alone or in combination with the indicated concentration of PEP005. Positive control samples were treated with PMA. Statistical significance, as determined by one‐way ANOVA, is indicated: *P < 0.05; **P < 0.005; ***P < 0.0005; ****P < 0.00005; ns, no significant difference. The exact P‐values are indicated in Appendix Table S1.
Luciferase assays were performed in 96‐well plate format, where 100 μl of cell culture containing 1 × 10^5 luciferase reporter cells was plated per well. After the indicated time of treatment, 100 μl of luciferase assay reagent (SuperlightTM luciferase reporter Gene Assay Kit; BioAssay Systems) was added per well, and incubated for 2 min at RT, when luciferase activity was measured on a VictorTM X3 Multilabel Plate Reader. Results were presented relative to the positive control samples treated with 50 nM PMA. T‐cell activation was measured using 1 × 10^5 wild‐type Jurkat^Tat cells or PBMCs purified from healthy donors, treated as indicated. After 24 h, cells were incubated with 2.4G2 antibody to block nonspecific binding and further stained with 5 μl of anti‐human CD69 or an IgG1 isotype control antibody conjugated with PE‐Cy^Tm7. After 30‐min incubation on ice, the cells were washed twice with PBS and analyzed using a Becton Dickinson LSRII flow cytometer (BD Biosciences) to determine mean fluorescence intensity (MFI), using FlowJo software. The mean fluorescence intensity (MFI) obtained from cells stained with IgG isotype antibody control was subtracted from that from cells stained with CD69 to compensate for background (MFICD69‐MFIIgG). IL‐2 production was measured in cell culture supernatants using a human IL‐2 ELISA System (eBioscience). […]
In general terms: Flow cytometry measures light scatter and fluorescence of single cells or particles in a stream.

In assay [1] the test system is HIV‐1 LTR chromatin (Jurkat^Tat LTR‐DsRed clone #11). Nature of the assay: ChIP of histone H3K9 modifications at the HIV‐1 LTR. The format is cell-based. Here is the method:
To characterize induction of HIV‐1 expression caused by PH02 in more detail, we employed chromatin immunoprecipitation (ChIP) assays to examine changes at the LTR promoter using Jurkat^Tat LTR‐DsRed clone #11.
Figure 6 Effect of PH02 on histone modification at HIV‐1 LTR and global histone modification • Chromatin immunoprecipitation assays were performed using Jurkat^Tat LTR‐DsRed, clone 11. The cells were treated for 24 h with PH02 and/or PEP005, and ChIP was performed using antibodies against histone H3K9‐me3 (left panel) and histone H3K9‐ac (right panel). The results are presented relative to ChIP with antihistone H3 antibodies. The results are determined from three biological replicates (n = 3). Statistical significance, as determined by ratio paired t‐test, is indicated as follows: ***P < 0.0005; ****P < 0.00005. The exact P‐values are indicated in Appendix Table S1. • Western blot analysis was performed using Jurkat^Tat LTR‐DsRed, clone 11, to detect the expression of SP1, NF‐κB p65, IκBα, total H3K9‐me3, and H3K9ac. The cells were treated for 24 h with PH02 and/or PEP005. Source data are available online for this figure.
Jurkat^Tat LTR‐DsRed cells, clone #11, were treated with 3 μM PH02 and/or 10 nM PEP005, for 24 h, and the cells cross‐linked with 1% formaldehyde for 10 min at RT. The cells were resuspended in cold NP‐40 lysis buffer (0.5% NP‐40, 10 mM Tris–HCl pH 7.8, 3 mM MgCl2) containing freshly added protease inhibitor cocktail (PIC, Sigma‐Aldrich) and spun to collect nuclei. The nuclei were sonicated in buffer containing 10 mM Tris–HCl (pH 7.8), 10 mM EDTA, and 0.5% SDS to obtain DNA fragments of 200–2,000 bp using a Bioruptor sonicator (Diagenode). The chromatin fractions were precleared with protein A/G agarose beads (Millipore) and immune‐precipitated with anti‐H3K9‐me3, anti‐H3K9‐ac, or anti‐H3 antibodies (Abcam) according to the manufacturer's instructions. Cross‐links were reversed by incubating the samples at 68°C for 2 h, and DNA was purified using QIAquick PCR columns and assayed by qPCR using primers specific to the HIV‐1 LTR core promoter, AGTGGCGAGCCCTCAGAT, and […]. Results are presented as normalized relative to that for histone H3 immunoprecipitates.

Setting [2] is: 3 μM PH02 or 1 nM PEP005 alone, 24 h.
Where [3] appears, read: single treatment, 3 μM PH02 or 10 nM PEP005, 24 h.

`C/C=C(/C)C(=O)O[C@H]1C(C)=C[C@]23C(=O)[C@@H](C=C(CO)[C@@H](O)[C@]12O)[C@H]1[C@@H](C[C@H]3C)C1(C)C` [PEP005, ingenol‐3‐angelate, reference compound]: the CD69 induction entry in the assay on CD69 expression on PBMCs (setting [2]) is “did not cause significant CD69 induction”. Moreover, the “PEP005 concentration causing CD69 expression at levels similar to PMA” value in the assay on CD69 expression on PBMCs (alone and in combination with 3 μM PH02, 24 h) is recorded as “higher than 1 nM”. In addition, in assay [1] (setting [3]), the “H3K9 acetylation on the LTR” value is “accumulation of H3K9 acetylation” and the “H3K9‐3me at the LTR relative to total histone H3” value is “a similar effect was observed”.

For `CC(=O)Oc1ccccc1N(C=C1Sc2ccccc2C1=O)C(C)=O` [PH02, 2‐{acetyl[(3‐oxo‐1‐benzothien‐2(3H)‐ylidene)methyl]amino}phenyl acetate], the CD69 induction entry with CD69 expression on PBMCs (3 μM PH02 + 1 nM PEP005, 24 h) is recorded as “did not cause significant CD69 induction”; in the assay on CD69 expression on PBMCs (setting [2]), “did not cause significant CD69 induction”. Further, the “H3K9 acetylation on the LTR” value was “significant elevation” in assay [1] (3 μM PH02 + 10 nM PEP005, 24 h) and “accumulation of H3K9 acetylation” in assay [1] (setting [3]). The “H3K9‐3me at the LTR relative to total histone H3” value in assay [1] (3 μM PH02 + 10 nM PEP005, 24 h, versus either drug separately) is recorded as “equivalent reduction”; in assay [1] (setting [3]) it was “significantly reduced”.
